Laboratory results taken from US12318399B2 (priority 2022, dated 2025).

Experiments:
[1] = system: endometrial cancer organoids; assay: Patient-derived endometrial cancer organoid cell viability (CellTiter-Glo); assay type: cell-based, human; conditions: for Flavonoids screening on endometrial cancer cell organoids, Average: viability normalized to vehicle = 100; for cell viability: FIG. 17B; for efficacy in combination with FSHE: combined with IC50 FSHE, FIG. 18; for Endometrial Cancer Average: vehicle = 100; for cell viability compared to the IC50 value: 75 μM in combination with BSHE at an IC50, FIG. 17A
Description: (§1) Development of patient derived organoids: The patient derived organoids were created as follows: the patient's tissue sample was collected after surgery and bathed in Hank's Balanced Salt Solution (HBSS) (Hyclone, SH30031.02) with 1% Pencillin/Streptomycin (P/S) (Life Technologies, 15070-063) on ice. Then the sample was washed three times with Dulbecco's phosphate-buffered saline (DPBS) and 1% P/S on a shaker (70 rpm) for 15 minutes each. The tissue was then transferred into a presterilized cell-culture hood to mince it finely with a sterile blade. All minced parts were then digested in an enzyme named Accumax (Innovative Cell Technologies Inc., AM105-500) for 2.5 hours at room temperature. After 2.5-hour incubation, the whole digested tissue mince was transferred in another enzyme, TrypLE express, (Gibco, 12604-021) for another 45 minutes in a 37° C. water bath. During this time the solution was continuously agitated in every 5 minutes interval. After 45 minutes of incubation, the solutions were passed through 70 μm filter on a 50 mL falcon tube. The filter was removed, and the flowthrough with the cells was collected in 5% FBS AD+++ medium (comprising 1% TS, 2% B27, 1% N2, 25% WRN, hegf 50 ng/ml, hfgf 10-100 ng/ml, Nicotinamide 1 mM, N-acetyl cysteine 1.25 mM, Primocin 0.2%, Estrogen 2 nm, A8301 0.5 μM, and Y27632). This cell suspension was centrifuged at 1000 rpm for 5 minutes at room temperature to get the cell pellet for counting. Upon checking under hemocytometer cell number was calculated and processed for organoid culture. After checking under a microscope if we found RBC contamination in the final cell suspension, then we used Red Blood Cell Lysis Buffer (Roche Diagnostics, 11814389001) to get rid of the excess RBC. Human patient cells from endometrial cancer were grown and maintained in a humidified chamber at 37° C. with 5% CO2.
(§2) To culture patient-derived organoids, 2-3×10^3 cells were plated in a prewarmed (37° C.) 96-well plate in […] of Matrigel (5% FBS AD+++ medium) per well. Individual patient cell organoid was cultured separately in different plates. Individual patient cells were handled separately to reduce the chance of cross-contamination. After mixing cells with Matrigel, […] droplets were placed in wells and put in a 37° C. incubator with 5% CO2 for 30 minutes. Upon solidification of the Matrigel droplet with cells inside, the plate was placed inside a sterile hood and immersed the Matrigel droplet in 200 μL of organoid growth media. Cells were allowed to grow into mature organoids for 14 days. […] All treatments were done in triplicate, including vehicle-only controls (Dimethyl sulfoxide in culture medium at the highest concentration used for drug treatments).
(§3) Note: IC50 is the 50% inhibitory concentration which is conventionally used to determine drug potency with cell-based cytotoxicity tests. Similarly, all of the antioxidants were tested under the same protocol.
(§4) To assess the cell viability in organoids after treatments, CellTiter-Glo® Luminescent Assay (Promega #G7572) was used. In brief, on day 14 of organoid culture, the matrigel droplet in each well with organoid inside was immersed in 100 μL of fresh growth media and 100 μL of CellTiter-Glo® reagent following the manufacturer's guideline. Blank wells containing only media and CellTiter-Glo® reagent (no cells) were also included in each plate. Then the plates were put on a shaker at 110 RPM at room temperature for […] minutes to induce cell lysis, followed by 25 minutes at room temperature to stabilize the luminescent signal. Each step after adding the CellTiter-Glo® reagent was performed in the dark. Luminescence was measured on a FLUOstar OPTIMA plate reader (BMG Lab technologies, Offenburg, Germany). Analysis was performed by normalizing treatment values to the vehicle control and plotting them as a percentage of the vehicle control.

[2] = oral formulations; cited from earlier work
ovarian cancer organoids = assay: Patient-derived ovarian cancer organoid cell viability; assay type: cell-based, human; conditions: vehicle = 100
Description: as §1
For the Ascites samples, we centrifuged the ascites fluid at 1000 rpm for 10 minutes at room temperature to get the cell suspension. The cell suspension was then treated with Red Blood Cell Lysis Buffer (Roche Diagnostics, 11814389001) to remove the RBC from the final cell suspension. Once samples were created, they were ready for testing, which included treating the organoids with cannabis extract. Additional cells were cultured in the same manner as above.
as §2, §3
To assess the cell viability in organoids after treatments, CellTiter-Glo® Luminescent Assay (Promega #G7572) was used. In brief, on day 14 of organoid culture, the matrigel droplet in each well with organoid inside was immersed in 100 μL of fresh growth media and 100 μL of CellTiter-Glo® reagent following the manufacturer's guideline. Blank wells containing only media and CellTiter-Glo® reagent (no cells) were also included in each plate. […]

endometriosis organoids = assay: Endometriosis organoid cell viability; assay type: cell-based, human; parameters: key: % of vehicle control; conditions: vehicle = 100
Description: as §2, §3
as §4, with “control. Drug IC50 values were determined by inhibitor vs normalized response-variable slope using least squares regression in Graphpad Prism 9.” for “control.”

With O=c1c(O)c(-c2ccccc2)oc2ccccc12 [3-hydroxyflavone] the “Flavonoids screening on endometrial cancer cell organoids, Average” value (“Flavonoids screening” below) ([1]; 10 μM, monotherapy) was 61.62, the “Flavonoids screening” value ([1]; 20 μM, monotherapy) was 48.26 and the “Flavonoids screening” value ([1]; 30 μM, monotherapy) was 51.28. For the same compound, the “Flavonoids screening” value ([1]; 40 μM, monotherapy) was 41.00, the “Flavonoids screening” value ([1]; 50 μM, monotherapy) was 37.88 and the “Flavonoids screening” value ([1]; 60 μM, monotherapy) was 35.89. The “Flavonoids screening” value ([1]; 80 μM, monotherapy) was 34.31 and the “Flavonoids screening” value ([1]; 100 μM, monotherapy) was 34.65.
With O=c1c(O)c(-c2ccccc2)oc2cc(O)cc(O)c12 [Galangin] the “Flavonoids screening” value ([1]; 10 μM, monotherapy) was 98.74, the “Flavonoids screening” value ([1]; 20 μM, monotherapy) was 98.58 and the “Flavonoids screening” value ([1]; 30 μM, monotherapy) was 96.96. The “Flavonoids screening” value ([1]; 40 μM, monotherapy) was 69.20, the “Flavonoids screening” value ([1]; 50 μM, monotherapy) was 49.62 and the “Flavonoids screening” value ([1]; 60 μM, monotherapy) was 33.55. The “Flavonoids screening” value ([1]; 80 μM, monotherapy) was 25.66 and the “Flavonoids screening” value ([1]; 100 μM, monotherapy) was 29.73.
In the case of O=c1cc(-c2ccc(O)c(O)c2)oc2cc(O)cc(O)c12 [Luteolin], the “Flavonoids screening” value ([1]; 10 μM, monotherapy) is reported as 90.54, the “Flavonoids screening” value ([1]; 20 μM, monotherapy) is reported as 56.75 and the “Flavonoids screening” value ([1]; 30 μM, monotherapy) is reported as 33.96. For the same compound, the “Flavonoids screening” value ([1]; 40 μM, monotherapy) was 1.39, the “Flavonoids screening” value ([1]; 50 μM, monotherapy) was 0.00 and the “Flavonoids screening” value ([1]; 60 μM, monotherapy) was 0.00. For the same compound, the “Flavonoids screening” value ([1]; 80 μM, monotherapy) was 0.00 and the “Flavonoids screening” value ([1]; 100 μM, monotherapy) was 0.00.
For O=c1c(O)c(-c2ccc(O)c(O)c2)oc2cc(O)cc(O)c12 [Quercetin], the “Flavonoids screening” value ([1]; 10 μM, monotherapy) was 95.16, the “Flavonoids screening” value ([1]; 20 μM, monotherapy) was 89.43 and the “Flavonoids screening” value ([1]; 30 μM, monotherapy) was 85.33. For the same compound, the “Flavonoids screening” value ([1]; 40 μM, monotherapy) was 58.16, the “Flavonoids screening” value ([1]; 50 μM, monotherapy) was 34.67 and the “Flavonoids screening” value ([1]; 60 μM, monotherapy) was 25.59. The “Flavonoids screening” value ([1]; 80 μM, monotherapy) was 7.88 and the “Flavonoids screening” value ([1]; 100 μM, monotherapy) was 0.00.
In the case of CCCCCc1cc(O)c2c(c1)OC(C)(C)[C@@H]1CCC(C)=C[C@@H]21 [THC, Δ-9-tetrahydrocannabinol], the “onset to reach peak concentration” value [2] is listed as about 120 min.
In the case of N.N.O=C([O-])C1(C(=O)[O-])CCC1.[Pt+2] [carboplatin, reference compound], the “relative improvement on increasing the chemotherapeutic drug by 5×” value ([1]; carboplatin alone) is reported as “about 18%”, the viability ([1]; carboplatin alone, 50 μg/mL (lowest dose)) is reported as “about 50%” and the viability ([1]; carboplatin alone, highest dose) is reported as “about 32%”.
For O=c1cc(-c2ccccc2)oc2cc(O)cc(O)c12 [chrysin], the cell viability ([1]; 10 μM combined with the IC50 of the BSHE) was 3.04%, the growth ([1]; 10 μM, monotherapy, FIG. 16) was 178.99% and the “change in viability, combination vs monotherapy” value ([1]; 10 μM, with IC50 of BSHE) was about 175%. The cell viability ([1]; 12.5 μM combined with the IC50 of the BSHE) was about 0%, the growth ([1]; 25 μM, monotherapy, FIG. 16) was 188.45% and the growth ([1]; 50 μM, monotherapy, FIG. 16) was 125.21%. The viability ([1]; 100 μM, monotherapy, FIG. 16) was 56.74 and the “efficacy in combination with FSHE” value [1] was 2nd most effective combination.
With O=c1c(O)c(-c2cc(O)c(O)c(O)c2)oc2cc(O)cc(O)c12 [myricetin] the “reduction from its monotherapy” value ([1]; 10 μM, with IC50 of BSHE) was about 86%, the “Endometrial Cancer Average” value ([1]; Table 4, 10 μM) was 85.01 and the “Endometrial Cancer Average” value ([1]; Table 4, 25 μM) was 54.50. For the same compound, the “Endometrial Cancer Average” value ([1]; Table 4, 50 μM) was 15.11, the “Endometrial Cancer Average” value ([1]; Table 4, 75 μM) was 4.98 and the “Endometrial Cancer Average” value ([1]; Table 4, 100 μM) was 0.00. The “Endometrial Cancer Average” value ([1]; Table 4, 125 μM) was 0.00, the “Endometrial Cancer Average” value ([1]; Table 4, 150 μM) was 0.00 and the “Endometrial Cancer Average” value ([1]; Table 4, 175 μM) was 0.00. For the same compound, the “Endometrial Cancer Average” value ([1]; Table 4, 200 μM) was 0.00, the “cell viability as a monotherapy” value ([1]; monotherapy, FIG. 16) was “significantly reduced cell viability” and the “Ovarian Cancer Average” value (ovarian cancer organoids; 25 μM) was 88.60. For the same compound, the “Ovarian Cancer Average” value (ovarian cancer organoids; 50 μM) was 84.68, the “Ovarian Cancer Average” value (ovarian cancer organoids; 75 μM) was 78.36 and the “Ovarian Cancer Average” value (ovarian cancer organoids; 100 μM) was 38.95. The “Ovarian Cancer Average” value (ovarian cancer organoids; 125 μM) was 13.49, the “Ovarian Cancer Average” value (ovarian cancer organoids; 150 μM) was 2.97 and the “Ovarian Cancer Average” value (ovarian cancer organoids; 175 μM) was 0.00. For the same compound, the “Ovarian Cancer Average” value (ovarian cancer organoids; 200 μM) was 0.00, the “Endometriosis Average” value (endometriosis organoids; 25 μM) was 92.10 and the “Endometriosis Average” value (endometriosis organoids; 50 μM) was 91.37. For the same compound, the “Endometriosis Average” value (endometriosis organoids; 75 μM) was 73.66, the “Endometriosis Average” value (endometriosis organoids; 100 μM) was 18.33 and the “Endometriosis Average” value (endometriosis organoids; 125 μM) was 2.85. The “Endometriosis Average” value (endometriosis organoids; 150 μM) was 0.00, the “Endometriosis Average” value (endometriosis organoids; 175 μM) was 0.00 and the “Endometriosis Average” value (endometriosis organoids; 200 μM) was 0.00.
For CC(=O)O[C@H]1C(=O)[C@@]2(C)[C@H]([C@H](OC(=O)c3ccccc3)[C@]3(O)C[C@H](OC(=O)[C@H](O)[C@@H](NC(=O)c4ccccc4)c4ccccc4)C(C)=C1C3(C)C)[C@]1(OC(C)=O)CO[C@@H]1C[C@@H]2O [paclitaxel, reference compound], the “relative reduction in viability on increasing the dose by 5×” value ([1]; paclitaxel alone, 4 nm/ml to 20 nm/ml) was “about 12%”.
For O=C1c2c(O)cc(O)cc2O[C@H](c2ccc(O)c(O)c2)[C@H]1O [taxifolin], the “effect on cells as monotherapy” value ([1]; 50 μM, monotherapy, FIG. 16) was “inducing cell proliferation” and the “cell viability compared to the IC50 value” [1] was “significant reduction cell viability”.
With Cc1c(C)c2c(c(C)c1O)CC[C@@](C)(CCC[C@H](C)CCC[C@H](C)CCCC(C)C)O2 [tocopherol, reference compound] the “effect on cells as monotherapy” value ([1]; 50 μM, monotherapy, FIG. 16) was “inducing cell proliferation”, the “cell viability compared to the IC50 value” [1] was “significant reduction cell viability” and the “efficacy in combination with FSHE” value [1] was “made the IC50 FSHE ineffective”. The “impact on cell viability alone in the carrier” value ([1]; monotherapy in DMSO) was “virtually no impact on cell viability”.
For C=C1CC/C=C(\C)CC[C@@H]2[C@@H]1CC2(C)C [β-caryophyllene, reference compound], the “effect on cells as monotherapy” value ([1]; 50 μM, monotherapy, FIG. 16) was “inducing cell proliferation” and the “cell viability compared to the IC50 value” [1] was “significant reduction cell viability”.
